Experimental data as given in PubChem BioAssay (NCI).
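GI50 marks 50% less growth. TGI is the concentration that stops growth completely.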

Columns and labels:
Assay in all cases: NCI tumour cell line growth inhibition, 384-well format
K-562 leukemia = test system: K-562 leukemia
HCT-116 colon = test system: HCT-116 colon
TK-10 renal = test system: TK-10 renal
SN12C renal = test system: SN12C renal
NCI-H522 lung = test system: NCI-H522 lung
786-0 renal = test system: 786-0 renal
SK-MEL-5 melanoma = test system: SK-MEL-5 melanoma
SF-539 CNS = test system: SF-539 CNS
OVCAR-4 ovarian = test system: OVCAR-4 ovarian
T-47D breast = test system: T-47D breast
UACC-62 melanoma = test system: UACC-62 melanoma
SK-MEL-28 melanoma = test system: SK-MEL-28 melanoma
SF-268 CNS = test system: SF-268 CNS
HOP-92 NSCLC = test system: HOP-92 NSCLC
MOLT-4 leukemia = test system: MOLT-4 leukemia
KM12 colon = test system: KM12 colon
MCF7 breast = test system: MCF7 breast
EKVX NSCLC = test system: EKVX NSCLC
HT29 colon = test system: HT29 colon
HCC-2998 colon = test system: HCC-2998 colon
OVCAR-8 ovarian = test system: OVCAR-8 ovarian
NCI-H460 NSCLC = test system: NCI-H460 NSCLC
M14 melanoma = test system: M14 melanoma
UO-31 renal = test system: UO-31 renal
CAKI-1 renal = test system: CAKI-1 renal
SNB-75 CNS = test system: SNB-75 CNS
MDA-MB-435 melanoma = test system: MDA-MB-435 melanoma
MDA-MB-231 breast = test system: MDA-MB-231 breast
UACC-257 melanoma = test system: UACC-257 melanoma
NCI/ADR-RES ovarian = test system: NCI/ADR-RES ovarian
MDA-MB-468 breast = test system: MDA-MB-468 breast
OVCAR-3 ovarian = test system: OVCAR-3 ovarian
OVCAR-5 ovarian = test system: OVCAR-5 ovarian
HCT-15 colon = test system: HCT-15 colon
BT-549 breast = test system: BT-549 breast
U251 glioblastoma = test system: U251 glioblastoma
SF-295 CNS = test system: SF-295 CNS
COLO 205 colon = test system: COLO 205 colon
SK-OV-3 ovarian = test system: SK-OV-3 ovarian
CCRF-CEM leukemia = test system: CCRF-CEM leukemia
RPMI-8226 leukemia = test system: RPMI-8226 leukemia
NCI-H23 lung = test system: NCI-H23 lung
HL-60(TB) leukemia = test system: HL-60(TB) leukemia
LOX IMVI melanoma = test system: LOX IMVI melanoma
IGROV1 ovarian = test system: IGROV1 ovarian
A549 NSCLC = test system: A549 NSCLC
RXF 393 renal = test system: RXF 393 renal
SNB-19 CNS = test system: SNB-19 CNS
A498 renal = test system: A498 renal
DU-145 prostate = test system: DU-145 prostate
SW-620 colon = test system: SW-620 colon
MALME-3M melanoma = test system: MALME-3M melanoma
NCI-H226 lung = test system: NCI-H226 lung
PC-3 prostate = test system: PC-3 prostate
HOP-62 NSCLC = test system: HOP-62 NSCLC
ACHN renal = test system: ACHN renal
NCI-H322M lung = test system: NCI-H322M lung
HS 578T breast = test system: HS 578T breast

With Cc1ccc(-n2nc(C(C)(C)C)cc2NC(=O)NCc2cc(F)ccc2Oc2ccc3c(cnn3CCO)c2)cc1 the TGI (K-562 leukemia) was 0.0258 µM, the GI50 (HCT-116 colon) was 3.13 µM and the TGI (HCT-116 colon) was 16 µM. It also gave a GI50 (TK-10 renal) of 13.9 µM, a TGI (TK-10 renal) of 87.4 µM and a GI50 (SN12C renal) of 3.94 µM. It also gave a TGI (SN12C renal) of 33 µM, a GI50 (NCI-H522 lung) of 3.91 µM and a TGI (NCI-H522 lung) of 17.1 µM. The GI50 ([…]-0 renal) was 4.93 µM, the TGI (786-0 renal) was > 100 µM and the GI50 (SK-MEL-5 melanoma) was 1.06 µM. It also gave a TGI (SK-MEL-5 melanoma) of 6.63 µM, a GI50 (SF-539 CNS) of 2.72 µM and a TGI (SF-539 CNS) of 28.6 µM. The GI50 (OVCAR-4 ovarian) was 12.5 µM, the TGI (OVCAR-4 ovarian) was 31.8 µM and the GI50 (T-47D breast) was 1.82 µM. It also gave a TGI (T-47D breast) of 8.64 µM, a GI50 (UACC-62 melanoma) of 0.665 µM and a TGI (UACC-62 melanoma) of 5.74 µM. It also gave a GI50 (SK-MEL-28 melanoma) of 1.26 µM, a TGI (SK-MEL-28 melanoma) of 4.32 µM and a GI50 (SF-268 CNS) of 0.0455 µM. It also gave a TGI (SF-268 CNS) of 1.62 µM, a GI50 (HOP-92 NSCLC) of 4.1 µM and a TGI (HOP-92 NSCLC) of 29.8 µM. It also gave a GI50 (MOLT-4 leukemia) of 1.9 µM, a TGI (MOLT-4 leukemia) of 5.02 µM and a GI50 (KM12 colon) of 1.56 µM. For the same molecule, the TGI (KM12 colon) was 11.9 µM, the GI50 (MCF7 breast) was 2.7 µM and the TGI (MCF7 breast) was 14.3 µM. For the same molecule, the GI50 (EKVX NSCLC) was 4.58 µM, the TGI (EKVX NSCLC) was 27.7 µM and the GI50 (HT29 colon) was 1.86 µM. The TGI (HT29 colon) was 13.8 µM, the GI50 (HCC-2998 colon) was 3.47 µM and the TGI (HCC-2998 colon) was 13.2 µM. The GI50 (OVCAR-8 ovarian) was 13 µM, the TGI (OVCAR-8 ovarian) was > 100 µM and the GI50 (NCI-H460 NSCLC) was 6.4 µM. For the same molecule, the TGI (NCI-H460 NSCLC) was 20.6 µM, the GI50 (M14 melanoma) was 0.427 µM and the TGI (M14 melanoma) was 3.11 µM. It also gave a GI50 (UO-31 renal) of 3.16 µM, a TGI (UO-31 renal) of 20.8 µM and a GI50 (CAKI-1 renal) of 3.07 µM. The TGI (CAKI-1 renal) was > 100 µM, the GI50 (SNB-75 CNS) was 12.2 µM and the TGI (SNB-75 CNS) was 89 µM. It also gave a GI50 (MDA-MB-435 melanoma) of 2.74 µM, a TGI (MDA-MB-435 melanoma) of 89.2 µM and a GI50 (MDA-MB-231 breast) of 3.17 µM. The TGI (MDA-MB-231 breast) was > 100 µM, the GI50 (UACC-257 melanoma) was 1.87 µM and the TGI (UACC-257 melanoma) was 5.7 µM. It also gave a GI50 (NCI/ADR-RES ovarian) of 7.83 µM, a TGI (NCI/ADR-RES ovarian) of 66.4 µM and a GI50 (MDA-MB-468 breast) of 4.56 µM. The TGI (MDA-MB-468 breast) was 15 µM, the GI50 (OVCAR-3 ovarian) was 8.85 µM and the TGI (OVCAR-3 ovarian) was 24.3 µM. For the same molecule, the GI50 (OVCAR-5 ovarian) was 4.52 µM, the TGI (OVCAR-5 ovarian) was 50.9 µM and the GI50 (HCT-15 colon) was 5.14 µM. The TGI (HCT-15 colon) was > 100 µM, the GI50 (BT-549 breast) was 4.9 µM and the TGI (BT-549 breast) was 27.2 µM. For the same molecule, the GI50 (U251 glioblastoma) was 10.3 µM, the TGI (U251 glioblastoma) was > 100 µM and the GI50 (SF-295 CNS) was 18 µM. The TGI (SF-295 CNS) was > 100 µM, the GI50 (COLO 205 colon) was 1.26 µM and the TGI (COLO 205 colon) was 12.3 µM. For the same molecule, the GI50 (SK-OV-3 ovarian) was 9.15 µM, the TGI (SK-OV-3 ovarian) was > 100 µM and the GI50 (CCRF-CEM leukemia) was 4.51 µM. For the same molecule, the TGI (CCRF-CEM leukemia) was 16.7 µM, the GI50 (RPMI-8226 leukemia) was 4.07 µM and the TGI (RPMI-8226 leukemia) was 32 µM. The GI50 (NCI-H23 lung) was 1.78 µM, the TGI (NCI-H23 lung) was 6.08 µM and the GI50 (HL-60(TB) leukemia) was 1.67 µM. It also gave a TGI (HL-60(TB) leukemia) of 4.48 µM, a GI50 (LOX IMVI melanoma) of 1.62 µM and a TGI (LOX IMVI melanoma) of 4.41 µM. For the same molecule, the GI50 (IGROV1 ovarian) was 2.39 µM, the TGI (IGROV1 ovarian) was 18 µM and the GI50 (A549 NSCLC) was 7.81 µM. The TGI (A549 NSCLC) was > 100 µM, the GI50 (RXF 393 renal) was 3.38 µM and the TGI (RXF 393 renal) was 14.5 µM. For the same molecule, the GI50 (SNB-19 CNS) was 29.1 µM, the TGI (SNB-19 CNS) was > 100 µM and the GI50 (A498 renal) was 8.98 µM. For the same molecule, the TGI (A498 renal) was 71.8 µM, the GI50 (DU-145 prostate) was 15 µM and the TGI (DU-145 prostate) was > 100 µM. The GI50 (SW-620 colon) was 10.5 µM, the TGI (SW-620 colon) was > 100 µM and the GI50 (MALME-3M melanoma) was 0.357 µM. The TGI (MALME-3M melanoma) was 1.49 µM, the GI50 (NCI-H226 lung) was 0.44 µM and the TGI (NCI-H226 lung) was 13.3 µM. The GI50 (PC-3 prostate) was 6.72 µM, the TGI (PC-3 prostate) was 53.1 µM and the GI50 (HOP-62 NSCLC) was 4.67 µM. It also gave a TGI (HOP-62 NSCLC) of 27.1 µM, a GI50 (ACHN renal) of 3.28 µM and a TGI (ACHN renal) of 62.9 µM. For the same molecule, the GI50 (NCI-H322M lung) was 6.36 µM, the TGI (NCI-H322M lung) was > 100 µM and the GI50 (HS 578T breast) was 2.63 µM. For the same molecule, the TGI (HS 578T breast) was 15.6 µM.
